In ChEMBL document CHEMBL1201862, “PubChem BioAssay data set” (2004):
One block for each compound: values may come before it. Active and inactive are the calls of the source.

Experiments:
[1] = biological target: Sphingosine 1-phosphate receptor 2 (Homo sapiens, UniProt O95136); test: Dose Response Cell Based Assay for Antagonists of the S1P2 Receptor. [Related pubchem assays: 856, 736 ]; format: functional
Protein Tat = Protein Tat (Human immunodeficiency virus type 1 group M subtype B (isolate HXB2)(HIV-1), UniProt P04608); format: functional;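 note: tat binding to TAR RNA read out by fluorescence polarization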
Large T antigen = Large T antigen (Simian virus 40, UniProt P03070); format: functional, Betapolyomavirus macacae;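 note: Confirmatory-stage PubChem screen for compounds that inhibit SV40 T antigen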
Cytochrome P450 2C9 = Cytochrome P450 2C9 (Homo sapiens, UniProt P11712)
Ephrin type-A receptor 4 = Ephrin type-A receptor 4 (Mus musculus, UniProt Q03137); test: EphA4 ligand-binding antagonists – biochemical, colorimetric, mouse EphA4, primary screen (AID 689); format: functional
Estrogen receptor beta [2] = biological target: T1, Estrogen receptor beta (Homo sapiens, UniProt Q92731);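 note: recombinant ER-beta bound to coactivator SRC1 peptide in presence of estradiol agonist; inhibitors block coactivator peptide binding and lower the FRET signal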
[3] = biological target: DNA (cytosine-5)-methyltransferase 1 (Homo sapiens, UniProt P26358); test: inhibition of DNA methylation by DNMT1 – biochemical, fluorescent molecular beacon, confirmation (AID 602386); format: functional
[4] = biological target: T2, Rac GTPase-activating protein 1 (Homo sapiens, UniProt Q9H0H5); test: blockers of MgcRacGAP-driven Rac1 GTP hydrolysis – biochemical, ADP Hunter fluorescence, primary and confirmatory, confirmation (AID 624330); format: functional
T2 sequence (Q9H0H5 whole entry): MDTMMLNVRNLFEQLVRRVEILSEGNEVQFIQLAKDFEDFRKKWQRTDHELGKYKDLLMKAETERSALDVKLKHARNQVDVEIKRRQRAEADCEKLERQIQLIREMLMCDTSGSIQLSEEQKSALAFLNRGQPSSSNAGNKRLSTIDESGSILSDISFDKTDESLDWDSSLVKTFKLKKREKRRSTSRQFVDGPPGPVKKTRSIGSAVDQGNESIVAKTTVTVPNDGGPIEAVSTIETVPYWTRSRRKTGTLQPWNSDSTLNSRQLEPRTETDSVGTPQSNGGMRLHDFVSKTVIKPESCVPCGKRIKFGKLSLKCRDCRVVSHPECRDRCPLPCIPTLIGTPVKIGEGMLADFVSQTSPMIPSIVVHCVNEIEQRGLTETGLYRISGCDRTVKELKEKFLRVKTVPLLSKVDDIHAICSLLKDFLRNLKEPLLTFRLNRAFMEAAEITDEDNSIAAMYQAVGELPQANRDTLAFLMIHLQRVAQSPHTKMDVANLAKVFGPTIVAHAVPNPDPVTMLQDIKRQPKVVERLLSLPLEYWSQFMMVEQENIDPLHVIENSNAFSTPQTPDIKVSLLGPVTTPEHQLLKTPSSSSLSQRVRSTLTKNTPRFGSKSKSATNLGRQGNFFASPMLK

[5] = biological target: T3, Carboxy-terminal domain RNA polymerase II polypeptide A small phosphatase 1 (Homo sapiens, UniProt Q9GZU7); test: CTDSP1 inhibitors, concentration-response, biochemical, absorbance readout, ultra-high-throughput screen actives (AID 540297); format: functional
T3 sequence (Q9GZU7 whole entry): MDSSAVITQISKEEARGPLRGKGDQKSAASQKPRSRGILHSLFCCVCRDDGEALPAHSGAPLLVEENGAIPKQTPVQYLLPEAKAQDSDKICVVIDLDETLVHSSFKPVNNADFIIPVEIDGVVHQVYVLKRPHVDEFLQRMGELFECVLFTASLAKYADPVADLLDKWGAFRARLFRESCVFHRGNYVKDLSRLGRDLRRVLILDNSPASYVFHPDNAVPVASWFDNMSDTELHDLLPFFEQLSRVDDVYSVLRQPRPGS

[6] = biological target: Induced myeloid leukemia cell differentiation protein Mcl-1 (Homo sapiens, UniProt Q07820); format: functional
Estrogen receptor beta [7] = biological target: T1, Estrogen receptor beta; test: blockers of SRC-3 recruitment to ERβ – biochemical, ELISA, streptavidin-HRP readout, orthogonal assay, confirmation (AID 1060)
[8] = biological target: Eukaryotic translation initiation factor 4E (Mus musculus, UniProt P63073); test: blockers of eIF4G binding by eIF4E – biochemical, TR-FRET, dose response (AID 855); format: functional;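 note: potency for disrupting eIF4E binding to eIF4GI seen as loss of FRET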
[9] = viability inhibitors of stage V gametocytes – luminescence, dose response (AID 1117278); format: functional, cell-based;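 note: gametocytes exposed to compound for 24 hours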
[10] = viability loss in human Jurkat cells – cell-based, luminescence, cytotoxicity control for P. falciparum gametocyte viability project, dose response (AID 1117277); format: functional;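 note: potency reflects loss of cellular ATP meaning fewer viable cells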
[11] = biological target: T4, Calpain-2 catalytic subunit (Sus scrofa, UniProt P43367); test: m-calpain protease blockers, concentration series – biochemical, fluorogenic peptide substrate, dose response (AID 1420); format: functional
T4 sequence (P43367 whole entry): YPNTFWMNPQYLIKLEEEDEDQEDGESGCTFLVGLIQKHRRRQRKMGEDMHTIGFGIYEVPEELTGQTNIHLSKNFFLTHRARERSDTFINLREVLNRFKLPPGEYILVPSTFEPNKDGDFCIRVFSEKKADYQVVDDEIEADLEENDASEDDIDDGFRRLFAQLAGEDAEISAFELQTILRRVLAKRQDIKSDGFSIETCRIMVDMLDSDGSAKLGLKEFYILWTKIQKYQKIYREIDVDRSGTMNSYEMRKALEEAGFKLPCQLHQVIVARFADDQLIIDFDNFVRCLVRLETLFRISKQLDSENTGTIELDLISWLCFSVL

[12] = HIV-1 Vif–A3G interaction blockers – biochemical, TR-FRET, GST-Vif 1-94, biotin-A3G peptide, dose response retest, primary screen (AID 1117319); format: functional;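 note: TR-FRET signal of purified GST-Vif binding a biotinylated A3G peptide; inhibitors lower the FRET signal by blocking Vif and A3G binding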
[13] = viability of uninfected HEp-2 cells – cell-based, HTS, cytotoxicity control for RSV inhibitor project, dose response (AID 2410); format: functional; conditions: human respiratory syncytial virus
[14] = Dd2 malaria parasite growth inhibition potency – SYBR Green, dry powder samples, dose response (AID 1159566); format: functional, cell-based;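 note: potency for growth inhibition with lower SYBR green DNA signal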
[15] = OVCAR8 cell viability loss – plate reader, dry powder samples, PAX8 project, dose response (AID 743197); format: functional, cell-based; conditions: OVCAR-8
[16] = growth inhibition of PfATP4-mutant resistant parasites – NITD609-resistant line, SYBR Green, dry powder, dose response (AID 1159571); format: functional, cell-based;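 note: parasites synchronized at ring stage by sorbitol before testing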
[17] = P. falciparum Dd2 growth inhibitors, dose response, SYBR Green, cherry-picked samples (AID 1159567); format: functional, cell-based
[18] = growth inhibition of yeast DHODH-expressing 3D7 parasites – SYBR Green, dry powder samples, dose response (AID 1159570); format: functional, cell-based;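 note: parasite growth measured after 72 hours of compound exposure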
Paired box protein Pax-8 = Paired box protein Pax-8 (Homo sapiens, UniProt Q06710); test: PAX8 transcriptional activity inhibition in RMG-I – RMG-I cells, luciferase, cherry-pick, dose response (AID 687027); format: functional, cell-based;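 note: luciferase reporter driven by Pax8 target thyroperoxidase promoter measured by SteadyGlo luminescence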
[19] = Reduced DLD-1 viability, concentration-response, CellTiter-Glo luminescence (AID 1117352); format: functional
[20] = cytotoxicity toward HT-29 cells – cell-based, CellTiter-Glo luminescence, IC50, dose response (AID 1117330); format: functional
[21] = cytotoxicity toward HCT116 cells – cell-based, CellTiter-Glo luminescence, IC50, dose response (AID 1117332); format: functional; conditions: HCT-116
Cytochrome P450 3A4 = Cytochrome P450 3A4 (Homo sapiens, UniProt P08684);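 note: CYP3A4 tested as one member of a cytochrome P450 panel screen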
[22] = RKO cell viability reduction, dose response, CellTiter-Glo luminescence (AID 1117322); format: functional
[23] = SNU-C1 cell viability reduction, dose response, CellTiter-Glo luminescence (AID 1117323); format: functional, cell-based
[24] = CellTiter-Glo luminescence survival assay, SW480 colon tumor line, concentration-response curve, half-maximal inhibitory concentration (AID 1117338); format: functional
[25] = cytotoxicity toward Colo320 cells – cell-based, CellTiter-Glo luminescence, IC50, dose response (AID 1117334); format: functional; conditions: COLO 320

Sequence of Ephrin type-A receptor 4 (Q03137 whole entry): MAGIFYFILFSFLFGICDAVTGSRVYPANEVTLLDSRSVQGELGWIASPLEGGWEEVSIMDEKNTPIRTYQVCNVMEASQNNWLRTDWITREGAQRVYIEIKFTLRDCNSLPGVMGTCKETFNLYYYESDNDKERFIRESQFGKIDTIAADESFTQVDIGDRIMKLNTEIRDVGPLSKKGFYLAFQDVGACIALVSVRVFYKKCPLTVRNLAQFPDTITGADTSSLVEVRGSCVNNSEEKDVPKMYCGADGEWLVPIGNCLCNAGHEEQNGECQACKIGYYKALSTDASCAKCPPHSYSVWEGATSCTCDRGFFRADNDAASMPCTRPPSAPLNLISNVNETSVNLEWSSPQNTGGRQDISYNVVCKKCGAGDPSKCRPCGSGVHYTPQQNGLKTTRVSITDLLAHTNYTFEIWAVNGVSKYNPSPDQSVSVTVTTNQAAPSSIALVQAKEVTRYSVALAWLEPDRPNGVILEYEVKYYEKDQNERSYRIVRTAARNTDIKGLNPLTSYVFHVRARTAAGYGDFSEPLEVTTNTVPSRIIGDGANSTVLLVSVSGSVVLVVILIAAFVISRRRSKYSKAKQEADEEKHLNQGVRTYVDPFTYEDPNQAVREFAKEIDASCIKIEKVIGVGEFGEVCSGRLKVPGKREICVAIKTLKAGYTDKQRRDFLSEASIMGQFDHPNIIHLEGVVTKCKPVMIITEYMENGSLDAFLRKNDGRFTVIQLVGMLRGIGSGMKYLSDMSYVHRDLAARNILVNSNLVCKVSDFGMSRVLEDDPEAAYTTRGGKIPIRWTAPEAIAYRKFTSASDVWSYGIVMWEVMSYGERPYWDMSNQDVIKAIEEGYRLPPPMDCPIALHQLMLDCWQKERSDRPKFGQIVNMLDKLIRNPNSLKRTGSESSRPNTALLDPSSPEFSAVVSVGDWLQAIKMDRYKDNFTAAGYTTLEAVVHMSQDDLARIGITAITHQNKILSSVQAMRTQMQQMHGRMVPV
T1 sequence (Q92731 whole entry): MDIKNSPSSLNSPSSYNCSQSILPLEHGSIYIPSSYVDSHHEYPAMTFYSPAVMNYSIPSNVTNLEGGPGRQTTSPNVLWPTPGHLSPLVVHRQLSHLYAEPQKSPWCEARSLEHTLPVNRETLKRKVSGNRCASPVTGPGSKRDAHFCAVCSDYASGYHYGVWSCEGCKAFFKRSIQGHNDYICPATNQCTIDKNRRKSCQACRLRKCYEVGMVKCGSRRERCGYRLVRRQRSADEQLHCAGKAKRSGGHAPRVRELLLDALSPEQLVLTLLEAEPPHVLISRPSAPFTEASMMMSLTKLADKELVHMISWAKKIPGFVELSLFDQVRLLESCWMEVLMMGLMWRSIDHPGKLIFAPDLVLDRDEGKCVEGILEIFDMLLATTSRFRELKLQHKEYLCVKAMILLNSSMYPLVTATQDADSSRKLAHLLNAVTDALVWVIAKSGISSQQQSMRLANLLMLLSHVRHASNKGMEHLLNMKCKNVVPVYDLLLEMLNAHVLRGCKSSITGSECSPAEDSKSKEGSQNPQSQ
Sequence of DNA (cytosine-5)-methyltransferase 1 (P26358 whole entry): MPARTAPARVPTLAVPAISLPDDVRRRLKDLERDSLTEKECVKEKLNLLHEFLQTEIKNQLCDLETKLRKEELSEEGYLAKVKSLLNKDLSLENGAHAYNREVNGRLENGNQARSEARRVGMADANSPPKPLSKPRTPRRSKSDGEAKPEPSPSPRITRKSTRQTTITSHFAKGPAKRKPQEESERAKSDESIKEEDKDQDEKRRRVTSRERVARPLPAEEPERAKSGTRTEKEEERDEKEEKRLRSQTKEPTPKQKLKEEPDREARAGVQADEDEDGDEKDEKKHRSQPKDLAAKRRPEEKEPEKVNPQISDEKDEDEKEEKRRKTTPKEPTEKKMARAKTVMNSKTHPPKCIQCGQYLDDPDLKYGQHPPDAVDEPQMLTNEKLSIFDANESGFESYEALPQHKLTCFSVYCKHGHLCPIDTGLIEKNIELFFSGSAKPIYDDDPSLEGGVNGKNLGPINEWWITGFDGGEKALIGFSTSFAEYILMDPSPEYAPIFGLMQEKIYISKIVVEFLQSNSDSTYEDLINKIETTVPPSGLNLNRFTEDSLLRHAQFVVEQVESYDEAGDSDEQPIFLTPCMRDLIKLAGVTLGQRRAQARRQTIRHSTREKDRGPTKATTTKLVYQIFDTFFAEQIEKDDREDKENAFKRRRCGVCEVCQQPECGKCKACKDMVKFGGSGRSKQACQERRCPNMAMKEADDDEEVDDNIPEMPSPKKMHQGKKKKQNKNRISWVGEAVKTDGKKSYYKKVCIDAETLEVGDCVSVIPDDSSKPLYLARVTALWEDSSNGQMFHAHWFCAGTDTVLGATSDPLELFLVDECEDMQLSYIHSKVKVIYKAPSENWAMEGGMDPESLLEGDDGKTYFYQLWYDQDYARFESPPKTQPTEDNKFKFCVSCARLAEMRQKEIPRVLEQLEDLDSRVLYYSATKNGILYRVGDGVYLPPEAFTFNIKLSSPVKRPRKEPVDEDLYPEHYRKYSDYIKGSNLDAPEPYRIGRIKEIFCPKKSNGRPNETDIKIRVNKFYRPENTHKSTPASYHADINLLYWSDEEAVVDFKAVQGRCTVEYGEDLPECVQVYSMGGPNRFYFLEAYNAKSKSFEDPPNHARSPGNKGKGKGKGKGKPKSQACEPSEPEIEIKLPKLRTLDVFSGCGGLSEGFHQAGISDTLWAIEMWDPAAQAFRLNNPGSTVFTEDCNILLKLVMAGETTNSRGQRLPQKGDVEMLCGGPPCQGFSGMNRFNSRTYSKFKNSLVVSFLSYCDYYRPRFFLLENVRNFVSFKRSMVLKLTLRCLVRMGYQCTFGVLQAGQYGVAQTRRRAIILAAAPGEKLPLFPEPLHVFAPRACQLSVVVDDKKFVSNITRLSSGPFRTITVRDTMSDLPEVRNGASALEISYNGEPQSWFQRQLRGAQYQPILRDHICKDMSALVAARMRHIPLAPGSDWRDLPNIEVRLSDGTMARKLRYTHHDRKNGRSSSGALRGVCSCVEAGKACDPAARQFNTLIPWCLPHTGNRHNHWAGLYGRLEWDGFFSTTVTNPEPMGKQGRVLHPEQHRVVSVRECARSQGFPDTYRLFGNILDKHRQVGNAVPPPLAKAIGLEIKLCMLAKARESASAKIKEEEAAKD
Sequence of Protein Tat (P04608 whole entry): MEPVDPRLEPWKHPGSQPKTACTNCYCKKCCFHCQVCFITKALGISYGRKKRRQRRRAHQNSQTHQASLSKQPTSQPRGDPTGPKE
Sequence of Eukaryotic translation initiation factor 4E (P63073 whole entry): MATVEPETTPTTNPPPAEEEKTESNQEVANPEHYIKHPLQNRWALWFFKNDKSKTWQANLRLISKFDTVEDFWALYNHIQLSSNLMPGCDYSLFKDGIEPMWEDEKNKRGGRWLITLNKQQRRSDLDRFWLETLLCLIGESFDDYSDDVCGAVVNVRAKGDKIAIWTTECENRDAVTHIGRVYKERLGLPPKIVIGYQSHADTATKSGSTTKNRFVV
Sequence of Large T antigen (P03070 whole entry): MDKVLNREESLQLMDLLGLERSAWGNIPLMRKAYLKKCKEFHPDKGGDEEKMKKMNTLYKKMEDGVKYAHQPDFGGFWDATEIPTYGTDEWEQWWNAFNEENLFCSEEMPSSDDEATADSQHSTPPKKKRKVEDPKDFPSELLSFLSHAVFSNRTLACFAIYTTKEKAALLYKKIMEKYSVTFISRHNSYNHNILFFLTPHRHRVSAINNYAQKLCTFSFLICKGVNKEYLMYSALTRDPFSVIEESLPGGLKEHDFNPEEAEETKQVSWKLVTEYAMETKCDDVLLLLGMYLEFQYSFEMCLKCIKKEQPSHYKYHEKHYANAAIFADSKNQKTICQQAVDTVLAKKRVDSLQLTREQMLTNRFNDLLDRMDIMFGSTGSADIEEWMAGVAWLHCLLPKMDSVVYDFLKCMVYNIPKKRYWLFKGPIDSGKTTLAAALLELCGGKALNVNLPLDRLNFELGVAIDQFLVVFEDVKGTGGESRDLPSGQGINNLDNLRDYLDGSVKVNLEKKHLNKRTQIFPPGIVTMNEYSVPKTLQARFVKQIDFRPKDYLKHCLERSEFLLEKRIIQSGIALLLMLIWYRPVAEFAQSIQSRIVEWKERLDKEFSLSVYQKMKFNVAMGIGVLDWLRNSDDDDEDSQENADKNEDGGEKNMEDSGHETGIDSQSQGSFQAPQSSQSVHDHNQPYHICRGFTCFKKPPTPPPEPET
Sequence of Cytochrome P450 2C9 (P11712 whole entry): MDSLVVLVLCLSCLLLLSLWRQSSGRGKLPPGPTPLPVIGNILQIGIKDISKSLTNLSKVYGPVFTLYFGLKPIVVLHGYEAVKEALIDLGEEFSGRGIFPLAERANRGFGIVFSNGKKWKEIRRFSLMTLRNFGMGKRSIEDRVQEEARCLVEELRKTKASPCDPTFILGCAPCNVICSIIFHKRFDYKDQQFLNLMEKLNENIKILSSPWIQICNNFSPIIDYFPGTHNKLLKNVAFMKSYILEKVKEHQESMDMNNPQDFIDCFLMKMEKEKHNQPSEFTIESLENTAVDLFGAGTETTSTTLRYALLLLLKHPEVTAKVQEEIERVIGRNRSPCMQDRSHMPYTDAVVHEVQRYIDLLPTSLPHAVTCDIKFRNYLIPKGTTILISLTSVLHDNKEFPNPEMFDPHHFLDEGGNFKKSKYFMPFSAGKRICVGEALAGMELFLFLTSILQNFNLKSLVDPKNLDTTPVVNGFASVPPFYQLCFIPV
Sequence of Induced myeloid leukemia cell differentiation protein Mcl-1 (Q07820 whole entry): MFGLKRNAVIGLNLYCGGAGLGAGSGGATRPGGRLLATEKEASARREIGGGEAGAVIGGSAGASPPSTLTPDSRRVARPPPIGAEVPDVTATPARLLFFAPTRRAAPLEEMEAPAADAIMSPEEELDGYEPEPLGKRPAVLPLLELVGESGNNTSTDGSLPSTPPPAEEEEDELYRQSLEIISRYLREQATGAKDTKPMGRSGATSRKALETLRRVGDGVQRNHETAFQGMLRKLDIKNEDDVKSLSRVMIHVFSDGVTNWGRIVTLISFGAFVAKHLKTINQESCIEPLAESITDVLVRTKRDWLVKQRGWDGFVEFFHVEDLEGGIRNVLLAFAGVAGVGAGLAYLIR

IC50 [1]: > 30 µM (not active)
SMILES: COC(=O)c1sc2cc(C(F)(F)F)cnc2c1-c1cccs1

IC50 (Estrogen receptor beta [2]): < 1.56 µM (active) | IC50 [3]: 4.47 µM (active) | IC50 [4]: 52 µM (active) | IC50 [5]: 2.82 µM (active) | IC50 [6]: 1.59 µM (active) | IC50 (Estrogen receptor beta [7]): 0.0725 µM (not active) | IC50 (Ephrin type-A receptor 4): 13.6 µM (active) | IC50 [8]: 16.9 µM (active)
SMILES: COc1ccc(Cc2nnc(NC(=O)Cc3cccs3)s2)cc1

IC50 [12]: > 100 µM (active)
SMILES: O=C(Nc1ccc2c(c1)oc1ccccc12)c1cccnc1
CC50 [13]: 46.2 µM (active)

IC50 [12]: > 100 µM (active)
SMILES: O=C(CNC(=O)c1cccs1)OCC(=O)c1ccc2ccccc2c1

The remaining lines, values behind:

SMILES: CC1OC(OCC2OC(Oc3c(-c4ccc(O)cc4)oc4cc(O)cc(O)c4c3=O)C(O)C(O)C2O)C(O)C(O)C1O (configuration not stated)
IC50 (Protein Tat): > 100 µM (active) | IC50 (Large T antigen): 17.3 µM (active)

SMILES: O=C(Nc1cccc2ccccc12)/C(=C/c1ccc([N+](=O)[O-])cc1)NC(=O)c1ccccc1
AC50 (Cytochrome P450 2C9): 5.01 µM (inconclusive) | IC50 (Ephrin type-A receptor 4): 11.4 µM (active)

SMILES: CC(C(=O)Nc1ccccc1Oc1ccccc1)c1ccccc1 (configuration not stated)
IC50 [9]: > 109 µM (inactive) | IC50 [10]: > 83.2 µM (inactive) | IC50 [11]: 19.8 µM (not active)

SMILES: COc1cccc(S(=O)(=O)N(C)C[C@@H]2OCc3ccccc3-c3c(n(C)c4ccccc34)C(=O)N([C@H](C)CO)C[C@@H]2C)c1
AC50 [14]: 0.322 µM (active) | AC50 [15]: 38.6 µM (active) | AC50 [16]: 0.46 µM (active) | AC50 [17]: 0.832 µM (active) | AC50 [18]: 0.476 µM (active) | AC50 (Paired box protein Pax-8): 6.87 µM (active)

SMILES: C[C@H]1CN([C@@H](C)CO)C(=O)Cc2cc(NC(=O)Nc3ccc(C(F)(F)F)cc3)ccc2O[C@@H]1CN(C)C(=O)Nc1ccc2c(c1)OCO2
AC50 [14]: 0.9 µM (active) | AC50 [16]: 0.93 µM (active) | AC50 [17]: 1.51 µM (active) | AC50 [18]: 1.11 µM (active)

SMILES: Cc1ccc(Cl)c(Nc2ccccc2C(=O)[O-])c1Cl.O.[Na+] [MECLOFENAMATE SODIUM]
IC50 [19]: 15.1 µM (inactive) | IC50 [20]: > 20 µM (inactive) | IC50 [21]: > 20 µM (inactive) | AC50 (Cytochrome P450 3A4): inconclusive | IC50 [22]: > 20 µM (inactive) | IC50 [23]: > 20 µM (inactive) | IC50 [24]: > 20 µM (inactive) | IC50 [25]: > 20 µM (inactive)
